Measurements from patent publication US6022901A, “Administration of resveratrol to prevent or treat restenosis following coronary intervention” (priority 1998, dated 2000).

Legend:
low-density lipoproteins = conditions: cited from earlier work
[1] = system: common iliac artery of high cholesteric rabbits; assay: Restenosis/thrombus model: balloon injury of common iliac artery in high cholesteric rabbits, local administration, angioscopy; format: in vivo, rabbit; conditions: after one month; trans-resveratrol + heparin (1:100) compared with heparin only, P<0.05
Procedure: The procedure of U.S. Pat. No. 5,595,974 to Tomaru may be used to evaluate the utility of trans-resveratrol in preventing restenosis in high cholestereric rabbits, as follows:
An injectable trans-resveratrol solution is prepared containing the following components: 10 mg trans-resveratrol; 3 mg chlorobutanol (preservative); 0.1 mg gelatin hydrolyzate (stabilizer); 9 mg sodium chloride (isotonic agent); and distilled water containing 2% dimethyl sulfoxide ("DMSO") for injection (to 1 mL).
Common iliac arteries of high cholesteric rabbits to which a diet containing 2% of cholesterol is loaded for a month are used as a model for restenosis, wherein the model consists of (1) a heparin group with seven male rabbits and (2) trans-resveratrol solution combined with th seven male rabbits, weighing between 2.5 kg and 3 kg, respectively. […]
Post-operatively, the percent luminal obstruction (%) of both the control side and the drug administered side are compared by continuing the load of high cholesterol for one month. That is, effects for preventing stenosis by local administration of trans-resveratrol is evaluated by angioscopic visualization after one month from vascular injury to compare the percent luminal obstruction (%) caused by intima pachymenia.
The percent luminal obstruction (%) is calculated by the following equation: […]

| Compound | protection of low-density lipoproteins against oxidation (low-density lipoproteins) | percent luminal obstruction (%) [1] |
| --- | --- | --- |
| Oc1ccc(/C=C\c2cc(O)cc(O)c2)cc1 [cis-resveratrol] | protect low-density lipoproteins against oxidation | – |
| OC[C@H]1O[C@@H](Oc2cc(O)cc(/C=C/c3ccc(O)cc3)c2)[C@H](O)[C@@H](O)[C@@H]1O [trans-resveratrol glucoside] | protect low-density lipoproteins against oxidation | – |
| C[C@@H]1O[C@@H](OC[C@H]2O[C@@H](Oc3c(-c4ccc(O)c(O)c4)oc4cc(O)cc(O)c4c3=O)[C@H](O)[C@@H](O)[C@@H]2O)[C@H](O)[C@H](O)[C@H]1O [rutin, reference compound] | protect low-density lipoproteins against oxidation | – |
| Oc1cc(O)c2c(c1)OC(c1ccc(O)c(O)c1)C(O)C2 (stereo not drawn) [catechin, reference compound] | protect low-density lipoproteins against oxidation | – |
| O=c1c(O)c(-c2ccc(O)c(O)c2)oc2cc(O)cc(O)c12 [quercetin, reference compound] | protect low-density lipoproteins against oxidation | – |
| OC[C@H]1O[C@@H](Oc2cc(O)cc(/C=C\c3ccc(O)cc3)c2)[C@H](O)[C@@H](O)[C@@H]1O [cis-resveratrol glucoside] | protect low-density lipoproteins against oxidation | – |
| Oc1cc(O)c2c(c1)O[C@H](c1ccc(O)c(O)c1)[C@H](O)C2 [epicatechin, reference compound] | protect low-density lipoproteins against oxidation | – |
| Oc1ccc(/C=C/c2cc(O)cc(O)c2)cc1 [trans-resveratrol] | protect low-density lipoproteins against oxidation | remarkably reduced percent luminal obstruction (%) |
